Consider three compounds from patent publication US20250235404A1, “PEG-LIPIDS AND LIPID NANOPARTICLES” (CAPSTAN THERAPEUTICS, INC., priority 2022, published 2025).

A short description of series [1]: Encapsulation efficiency of mRNA in LNP / tLNP (RiboGreen RNA assay). It is filed as physicochemical. To be noted: LNP whose PEG-lipid is the labelled compound; 50:10:38.5:1.5 mol/mol, mCherry mRNA, N/P 6. The source says:
(§1) The mRNA was encapsulated in LNP using a self-assembly process in which an aqueous solution of mRNA at pH=3.5 is rapidly mixed with a solution of lipids dissolved in ethanol, then followed by stepwise phosphate and Tris buffer dilution and tangential flow filtration (TFF) purification. LNP composition in this study was: an ionizable cationic lipid of Formula 1a as shown below/distearoylphosphatidylcholine/cholesterol/PEG-lipid (50:10:38.5:1.5 mol/mol) and were encapsulated at an N/P ratio (the ratio of positively-chargeable lipid amine (N=nitrogen) groups to negatively-charged nucleic acid phosphate (P) groups) at 6. LNPs were frozen at −80° C. LNP were made in which the PEG-lipid was DMG-PEG2000, as a benchmark, or one of Compounds VI-7, VI-8, B-46, or B-47. The diameter of the nanoparticles was measured by dynamic light scattering using a Zetasizer Nano ZS (Malvern Instruments Ltd., Malvern, UK) instrument. Size measurement was carried out in pH 7.4 Tris buffer at 25° C. in relevant disposable capillary cells. A non-invasive back scatter system (NIBS) with a scattering angle of 173° was used for size measurements.
mRNA content was determined using a Quant-iT™ RiboGreen RNA assay kit (Invitrogen™). Encapsulation efficiency was calculated by determining the unencapsulated mRNA content by measuring the fluorescence intensity (Fi) upon the addition of RiboGreen reagent to the LNP and comparing this value to the total fluorescence intensity (Ft) of the RNA content that is obtained upon lysis of the LNPs by 1% Triton X-100, where % encapsulation=(Ft−Fi)/Ft×100).

Series [2] is described as follows: Physical-chemical properties of the LNP / tLNP: hydrodynamic diameter and PDI by dynamic light scattering. Type of series: physicochemical. The conditions noted are these: for PDI* (polydispersity index) / Hydrodynamic diameter (nm): LNP whose PEG-lipid is the labelled compound, mCherry mRNA, N/P 6; for PDI* (polydispersity index): 50:10:38.5:1.5 mol/mol; for Hydrodynamic diameter (nm): ionizable cationic lipid/DSPC/cholesterol/PEG-lipid 50:10:38.5:1.5 mol/mol, pH 7.4 Tris buffer, 25° C.; for formation of LNP encapsulating mRNA: PEG-lipid at 1.5 mol % in LNP with mCherry mRNA. The protocol: The ability to incorporate various of the disclosed PEG-lipids into LNP encapsulating mRNA was assessed using mRNA encoding the fluorescent marker mCherry.
as §1
CleanCap® mCherry 5-methoxyuridine (5moU) mRNA (L-7203) was purchased from TriLink. mRNA was encapsulated in LNP using a self-assembly process in which an aqueous solution of mRNA at pH=3.5 is rapidly mixed with a solution of lipids dissolved in ethanol, then followed by stepwise phosphate and Tris buffer dilution and TFF purification. LNP composition in this study was: an ionizable cationic lipid as shown in Example 42/distearoylphosphatidylcholine/cholesterol/DMG-PEG 2000/functionalized PEG-lipid (50:10:38.5:1.4:0.1 mol/mol) and were encapsulated at an N/P ratio (the ratio of positively-chargeable […] amine (N=nitrogen) groups to negatively-charged nucleic acid phosphate (P) groups) at 6. The hydrodynamic diameter of the nanoparticles was measured by dynamic light scattering using a Zetasizer Nano ZS (Malvern Instruments Ltd., Malvern, UK) instrument.
The particle size (hydrodynamic diameter) and polydispersity index of the targeted lipid nanoparticles were determined using dynamic light scattering (DLS) on a Malvern Zetasizer Nano ZS (Malvern Instruments, Worcestershire, UK). Size measurement was carried out in pH 7.4 Tris buffer at 25° C. in relevant disposable capillary cells. A non-invasive back scatter system (NIBS) with a scattering angle of 173° was used for size measurements.

For a further series, the system named is HEK293F cells. The series is described as follows: Transfection of HEK293F cells with mCherry mRNA encapsulated in LNP (flow cytometry, Aqua Live/Dead). It is filed as cell-based, human. The conditions noted are these: LNP comprising the labelled PEG-lipid; for expression level of mCherry (gMFI) compared with the benchmark LNP (DMG-PEG2000) / transfection at the lower doses: 24 hours; for expression level of mCherry (gMFI) compared with the benchmark LNP (DMG-PEG2000): FIG. 14C; for transfection at the lower doses: lower LNP doses. The protocol: The ability of the LNP formed in the preceding Example to transfect HEK293F cells, a human embryonic kidney cell-derived cell line, with the mCherry mRNA was assessed. Viral Production Cells (Gibco Catalog number: A35347), a derivative of the HEK 293F cell line adapted to a chemically-defined, serum-free and protein-free medium (LV-MAX™ Production Medium; Gibco Catalog number: A3583401) were grown in suspension, sedimented, resuspended at about 1×10^6 cells/mL, and 200 μL distributed to the wells of a 96-well U-bottom plate. Frozen LNP were thawed and diluted to 100 μg mRNA/mL with sterile water for injection. An appropriate volume of LNP was added to provide 0, 0.3, 0.6, or 2 μg RNA per well in duplicate and mixed by re-pipetting. The cells were then incubated for 1 hour at 37° C. in a CO2 incubator, washed three times with phosphate buffered saline, resuspended in 400 μL of medium in a deep-well 96-well plate, and incubated at 37° C. in a CO2 incubator on an orbital shaker at 900 RPM.
Twenty-four hours after addition of the LNP to the cells they were stained with Aqua Live/Dead (Thermo: catalog L34965) to assess cell viability. Transfection rate and expression level in the transfected cells was assessed by flow cytometry based on mCherry fluorescence.

“1,2-dimyristoyl-glycero-3-methoxypolyethylene glycol-2000 [DMG-PEG2000, reference compound]”: the “Encapsulation Efficiency (%)” value in series [1] is recorded as 96%. In series [2], the “PDI* (polydispersity index)” value turned out to be 0.03 and the “Hydrodynamic diameter (nm)” value worked out at 82 nm.

`CCCCCCCCCCCCCCCCCC(=O)OCC(COC(=O)CCCCCCCCCCCCCCCCC)CC(=O)OCCOCCOCCOCCOCCOCCOCCOCCOCCOCCOCCOCCOCCOCCOCCOCCOCCOCCOCCOCCOCCOCCOCCOCCOCCOCCOCCOCCOCCOCCOCCOCCOCCOCCOCCOCCOCCOCCOCCOCCOCCOCCOCCOCCOCCOCc1ccc(OC)cc1` [Compound B-46]: in series [1], the “Encapsulation Efficiency (%)” value was 85%. In addition, in series [2], the “PDI* (polydispersity index)” value is 0.04, the “Hydrodynamic diameter (nm)” value is given as 88 nm and the “formation of LNP encapsulating mRNA” value is reported as “formed LNP”. For the same compound, in the series with HEK293F cells, the “expression level of mCherry (gMFI) compared with the benchmark LNP (DMG-PEG2000)” value is “substantially higher expression levels”. Also, the “transfection of live cells (transfection rate)” value in the series with HEK293F cells (highest LNP dose tested, 24 hours after addition, mCherry fluorescence, FIG. 14B) was about 90%. The “transfection at the lower doses” value in the series with HEK293F cells (FIG. 14B) is listed as “substantial levels of transfection”.

Regarding `CCCCCCCC(CCCCCCC)CCC(=O)OCC(COC(=O)CCC(CCCCCCC)CCCCCCC)CC(=O)OCCOCCOCCOCCOCCOCCOCCOCCOCCOCCOCCOCCOCCOCCOCCOCCOCCOCCOCCOCCOCCOCCOCCOCCOCCOCCOCCOCCOCCOCCOCCOCCOCCOCCOCCOCCOCCOCCOCCOCCOCCOCCOCCOCCOCCOCc1ccc(OC)cc1` [Compound B-47], the “Encapsulation Efficiency (%)” value in series [1] is 68%. In addition, in series [2], the “PDI* (polydispersity index)” value came to 0.12, the “Hydrodynamic diameter (nm)” value was found to be 98 nm and the “formation of LNP encapsulating mRNA” value is given as “formed LNP”. In addition, the “expression level of mCherry (gMFI) compared with the benchmark LNP (DMG-PEG2000)” value in the series on HEK293F cells is “performed comparably”. The “transfection at the lower doses” value in the series on HEK293F cells (FIG. 14B) is recorded as “minimal transfection”.
